Experimental data from patent US7348155B2, “Method for identifying compounds for treating aging processes in the coronary circulatory system” (Sanofi-Aventis Deutschland GmbH, priority 2001, dated 2008).
“And” between values parts separate entries of the source, which are not always exact repeats. Equal values may be shown once.

Columns and labels:
Assay type in all cases: cell-based
[1] = test system: human cardiac fibroblasts from healthy donor hearts; experiment: Procollagen type I C-peptide ELISA (collagen synthesis) in fibroblasts from control (healthy donor) hearts; conditions: 10^−7 mol/l; for Collagen synthesis (procollagen type I C-peptide, Absorption, in % of the controls), MV: mean value over control (donor) hearts
Protocol: (§1) Human cardiac fibroblasts were isolated from seven explanted human hearts in the terminal stage of cardiac insufficiency due to dilated cardiomyopathy. Four cell preparations were also made from healthy donor hearts. The fibroblasts were isolated in sterile 10 cm Petri dishes and cultured as previously described. After about 12 weeks of culturing, the cells reached the second passage with a confluence of approx. 80%. At this stage, the serum was withdrawn for 48 hours and the cells were subsequently stimulated for various intervals of time (between 6 and 24 hours) with UII, Ang II, TNFalpha, TGFβ, UII+TNFa, (in each case 10^−7 mol/l), or buffer (control). The determinations were carried out in duplicate or in triplicate. After the stimulation, the cells were washed, removed from the Petri dishes with 1 ml of PBS and centrifuged down in Eppendorf tubes (100 rpm, 5 min, 4° C.). The supernatant was discarded. 100 ul of lysis buffer (Nonidet P40, 0.5%, SDS 0.5%) were added to about 50 ul of cells and the mixture was incubated on ice for a further 20 minutes. The lysate was centrifuged once again (20 minutes, 1400 rpm, 4° C.) and the supernatant was used for the subsequent experiments. Protein was determined by means of the BCA (bicinchoninic acid) assay. The homogenates were diluted down to a protein concentration of 2 ug/ul.
(§2) Procollagen type I C-peptide in the fibroblasts from all the hearts was determined on a 96-well microtiter plate using a commercially obtainable solid-phase ELISA assay (TaKaRa Biomedicals, Shuzo Co, Ltd.). The assay was carried out in accordance with the manufacturer's instructions. […] The values for the procollagen type I C-peptide were determined using a standard curve of 10-640 ng/ml. The standards were provided by the manufacturer. The absorption values for the stimulations obtained with the controls (buffer) were set at 100%. The absorption values for the stimulated cells were related to the control values obtained for the same heart. In each case, the mean values from duplicate or triplicate determinations were used for the calculations. A bilateral, unpaired t test was used for statistically evaluating the comparison of the stimulation responses in control cells and in cardiac insufficiency cells.

[2] = test system: human cardiac fibroblasts from explanted hearts in the terminal stage of cardiac insufficiency; experiment: Procollagen type I C-peptide ELISA (collagen synthesis) in fibroblasts from hearts in the terminal stage of cardiac insufficiency (EFH); conditions: 10^−7 mol/l; for Collagen synthesis (procollagen type I C-peptide, Absorption, in % of the controls), MV: mean value over EFH hearts (SEM as spread)
Protocol: as §1, with “At this stage, the serum was withdrawn for 48 hours and the cells were subsequently stimulated for various intervals of time (between 6 and 24 hours) with UII, Ang II, TNFalpha, TGFβ, UII+TNFa, (in each case 10^−7 mol/l), or buffer (control).” left out
as §2

[3] = test system: fibroblasts from human hearts; experiment: Induction of mRNAs (collagen 1, MMP2, TGFbeta1, CTGF) in heart fibroblasts, real-time PCR; conditions: 1 μM, 6 hours stimulation, fibroblasts from three human hearts, GAPDH mRNA as standard reference
Protocol: Fibroblasts were isolated from human hearts as described in Cell and Tissue Research 286, 145-153 (1996). 96-98% of the resulting cell culture consisted of fibroblasts.
For the purpose of implementing this procedure, heart tissue was cut into small pieces and incubated three times, at 37° C. for 20 minutes, in KHB (Krebs Henseleit buffer) containing 2 mg of collagenase/ml and 2 mg of dispase/ml. The homogenates were combined and then centrifuged. The sediments were taken up in 10 ml of KHB. The cells were added, in portions of in each case 2 to 3 ml, to uncoated plastic containers. The volume was made up to 10 ml with DMEM (Dulbecco's modification of Eagle's medium) containing […] and 10% FCS (fetal calf serum). After having been incubated at 37° C. for 1 hour, the cells were washed twice with PBS (phosphate-buffered saline) and subsequently cultured, at 37° C. and 5% CO2, for approx. 4-8 weeks until 90% confluence had been reached. There then followed two further passages of in each case 4 weeks' duration. The cells employed in the present experiments were used after the second passage and at 70% to 90% confluence (approx. 3 months after isolation).
The reagents for implementing the cell culture techniques were obtained from Gibco BRL Life Technologies. The cells were first of all kept, at 37° C., in serum-free DMEM containing 4000 mg of glucose/l, 2 mM L-glutamine, 100 μg/0.1 mg of penicillin/streptomycin/ml and 0.1% BSA (bovine serum albumin) before angiotensin II or urotensin II was added, […] RNA was then prepared from the cells after 6 hours.
The RNA was isolated by means of standard methods using guanidinium chloride.
Reverse transcriptase (10 units/ng of RNA) was used to transcribe 500 ng of the RNA from each sample into DNA. For degrading the DNA, the entire volume, containing approx. 8-10 μg of RNA, was incubated with DNase I.
The RNAs were quantified using a LightCycler and a Fast Start SYBR Green RT-PCR kit supplied by Roche Molecular Biochemicals. Corresponding kits from other companies such as Applied Biosystems, Bio-Rad or Stratagene are also suitable for the same purpose. […] The quantities were equalized using GAPDH mRNA as the control.
Fibroblasts were isolated from three human hearts and used in the […]. […] The mRNAs (collagen 1, matrix metalloproteinase 2, TGFbeta1 and CTGF) were quantified by real-time PCR using a LightCycler™. […] Real-time PCR (polymerase chain reaction in real time) makes it possible to determine specific nucleic acids quantitatively. […]

Substance	Collagen synthesis (procollagen type I C-peptide, Absorption, in % of the controls) ([1]; control heart No. 3, 6 h)	Collagen synthesis (procollagen type I C-peptide, Absorption, in % of the controls) ([1]; control heart No. 3, 12 h)	Collagen synthesis (procollagen type I C-peptide, Absorption, in % of the controls) ([1]; control heart No. 5, 6 h)	Collagen synthesis (procollagen type I C-peptide, Absorption, in % of the controls) ([1]; control heart No. 6, 6 h)	Collagen synthesis (procollagen type I C-peptide, Absorption, in % of the controls), MV [1]	Collagen synthesis (procollagen type I C-peptide, Absorption, in % of the controls) ([2]; EFH heart No. 1, 24 h)	Collagen synthesis (procollagen type I C-peptide, Absorption, in % of the controls) ([2]; EFH heart No. 4, 24 h)	Collagen synthesis (procollagen type I C-peptide, Absorption, in % of the controls) ([2]; EFH heart No. 10, 5 h)	Collagen synthesis (procollagen type I C-peptide, Absorption, in % of the controls) ([2]; EFH heart No. 11, 5 h)	Collagen synthesis (procollagen type I C-peptide, Absorption, in % of the controls) ([2]; EFH heart No. 12, 12 h)	Collagen synthesis (procollagen type I C-peptide, Absorption, in % of the controls) ([2]; EFH heart No. 13, 12 h)	Collagen synthesis (procollagen type I C-peptide, Absorption, in % of the controls) ([2]; EFH heart No. 14, 12 h)	Collagen synthesis (procollagen type I C-peptide, Absorption, in % of the controls), MV [2]	Collagen synthesis (procollagen type I C-peptide, Absorption, in % of the controls), MV ([2]; listed as TNFalpha)	Collagen synthesis (procollagen type I C-peptide, Absorption, in % of the controls), MV ([2]; listed as TGF β)	MMP 2 mRNA ([3]; control 0.43 +/− 0.2)	CTGF mRNA ([3]; control 0.45 +/− 0.27)	Col 1 mRNA ([3]; control 0.56 +/− 0.1)	TGFbeta1 mRNA ([3]; control 0.60 +/− 0.09)	Collagen synthesis (procollagen type I C-peptide, Absorption, in % of the controls), MV ([2]; listed as Ang II)
TNFa	81 % of the controls	92 % of the controls	77 % of the controls	92 % of the controls	86 % of the controls	166 % of the controls	262 % of the controls	67 % of the controls	91 % of the controls	107 % of the controls	126 % of the controls	190 % of the controls	139 % of the controls	139+/−26 % of the controls						
TGFβ	84 % of the controls	123 % of the controls	71 % of the controls	110 % of the controls	97 % of the controls	166 % of the controls	377 % of the controls	142 % of the controls	123 % of the controls				202 % of the controls		202+/−52 % of the controls					
angiotensin II (DRVYIHPF; Angiotensin-2; UniProt P01019 25-32, looked up) [AII, reference compound]	84 % of the controls	92 % of the controls	88 % of the controls		88 % of the controls	142 % of the controls	471 % of the controls	94 % of the controls	113 % of the controls							0.22 +/− 0.1	0.34 +/− 0.9	0.56 +/− 0.27	0.71 +/− 0.07	205+/−67 % of the controls and 205 % of the controls
